Results from patent US20040067889A1, “Stabilization of brain natriuretic peptide (BNP) in blood samples, methods and compositions related thereto” (priority 2002, published 2004).
Like-named read-outs stand apart in the source and are kept apart here.

Experiments:
Format in all cases: biochemical
endogenous proteases [1] = assay: Stability of synthetic BNP-32 spiked into normal human plasma with protease inhibitors (chemiluminescent BNP immunoassay); conditions: for efficacy in stabilizing BNP (in words): Table 11, inhibitors at usual functional concentrations
endogenous proteases [2] = assay: Stability of spiked synthetic BNP in bovine fetal serum with inhibitors; conditions: BFS; for Recovery versus 1st run: 48 hours at 4° C.
Excerpt: (§1) To generate an analytical signal to quantify the BNP concentration in the sample, two monoclonal BNP-specific antibodies (Shionogi & Co., LTD, Osaka, Japan; EP542255A1/B1; JP 3297392) were used. The first antibody was labeled with acridinium ester (AE) and the second antibody was labeled with biotin. The two antibodies bind to BNP molecules present in the plasma samples to form a complex; the formed complex was captured by paramagnetic particles (PMP) coated with streptavidin. PMP was separated by magnetic field and washed to remove non-specifically bound material. BNP-AE complexes retained on the PMP were treated with alkaline solution to produce a chemiluminescent signal, which was proportional to the amount of BNP captured; the signal was measured in relative light units or “RLU”. The assay was carried out on an automated chemiluminescent system ADIVA:Centaur™ (Bayer Corporation, Tarrytown, N.Y.) using BNP detection reagents, such as have been described. (e.g., B. Bluestein et al., 2002, “Development of an automated test for BNP as an aid in the diagnosis and evaluation of CHF on the Bayer ADVIA Centaur ACS”, Clinical Chemistry, 48(S6):A85, Abstract C37).
(§2) Experiments were performed to assess BNP stabilization in animal serum and human serum versus human plasma. Tables 9 and 10 below illustrate the efficacy of PPACK and leupeptin as BNP stabilizers in three different media, namely, bovine fetal serum (Biocell Labs, Rancho Dominguez, Calif.), normal human serum (Biocell Labs), and normal human plasma (Intergen).

endogenous proteases [3] = assay: Stability of spiked synthetic BNP in normal human serum with inhibitors; conditions: HS; for Recovery versus 1st run: 48 hours at 4° C.
Excerpt: as §1, §2

[4] = IHPP + 10 ng/ml BNP, 4° C., AEBSF 200 μg/ml, antipain 100 μg/ml, benzamidine 14 mM, PPACK 50 μg/ml, or all four
[5] = HP, spiked synthetic BNP, leupeptin 0.5 μg/ml
[6] = HP, spiked synthetic BNP, leupeptin 5 μg/ml
[7] = HP, spiked synthetic BNP, leupeptin 50 μg/ml
[8] = IHP (EDTA) with synthetic BNP-32 added, each inhibitor 50 μg/ml
[9] = Plasma A, spiked synthetic BNP, inhibitor 0.62 μg/ml
[10] = Plasma A, spiked synthetic BNP, inhibitor 1.85 μg/ml
[11] = Plasma A, spiked synthetic BNP, inhibitor 5.56 μg/ml
[12] = Plasma A, spiked synthetic BNP, inhibitor 16.7 μg/ml
[13] = Plasma A, spiked synthetic BNP, inhibitor 50 μg/ml

N=C(N)c1ccccc1 [benzamidine]
% Recovery vs 1st run (Time 0) (endogenous proteases [1]): 82.6% | BNP, 1st run (Time 0) (endogenous proteases [1]): 830.6 pg/mL | BNP, 3 hours at 4° C. (endogenous proteases [1]): 806.8 pg/mL | BNP, 17 hours at 4° C. (endogenous proteases [1]): 860.5 pg/mL | BNP, 40 hours at 4° C. (endogenous proteases [1]): 813.8 pg/mL | BNP, 6 days at 4° C. (endogenous proteases [1]): 686.3 pg/mL | 1 week (RLU) (endogenous proteases [1]; [4]): 2568730 RLU | 2 weeks (RLU) (endogenous proteases [1]; [4]): 238972 RLU | 4 weeks % Signal Recovered (endogenous proteases [1]; [4]): 0.8% | 4 weeks (RLU) (endogenous proteases [1]; [4]): 30024 RLU | 72 hrs (RLU) (endogenous proteases [1]; [4]): 3342787 RLU | 22 days (RLU) (endogenous proteases [1]; [4]): 108308 RLU | Day 0 (RLU) (endogenous proteases [1]; [4]): 3927159 RLU | efficacy in stabilizing BNP (in words) (endogenous proteases [1]): intermediate efficacy

CC(=O)N[C@@H](CC(C)C)C(=O)N[C@@H](CC(C)C)C(=O)N[C@H](C=O)CCCNC(=N)N [leupeptin, acetyl-leu-leu-arginal]
% Recovery vs 1st run (Time 0) (endogenous proteases [1]): 105.5% | BNP, 1st run (Time 0) (endogenous proteases [1]): 792.0 pg/mL | BNP, 3 hours at 4° C. (endogenous proteases [1]): 896.9 pg/mL | BNP, 17 hours at 4° C. (endogenous proteases [1]): 864.4 pg/mL | BNP, 40 hours at 4° C. (endogenous proteases [1]): 873.7 pg/mL | BNP, 6 days at 4° C. (endogenous proteases [1]): 835.9 pg/mL | BNP, 3 hours at 4° C. before freezing (endogenous proteases [1]; [5]): 751.3 pg/mL | BNP, 24 hours at 4° C. before freezing (endogenous proteases [1]; [5]): 696.1 pg/mL | BNP, 48 hours at 4° C. before freezing (endogenous proteases [1]; [5]): 672.6 pg/mL | BNP, frozen w/o storage at 4° C. (endogenous proteases [1]; [5]): 765.2 pg/mL | Recovery versus 1st run (endogenous proteases [1]; HP, spiked synthetic BNP, leupeptin 0.5 μg/ml, 48 hours at 4° C.): 87.9% | BNP, 3 hours at 4° C. before freezing (endogenous proteases [1]; [6]): 828.3 pg/mL | BNP, 24 hours at 4° C. before freezing (endogenous proteases [1]; [6]): 807.5 pg/mL | BNP, 48 hours at 4° C. before freezing (endogenous proteases [1]; [6]): 784.4 pg/mL | BNP, frozen w/o storage at 4° C. (endogenous proteases [1]; [6]): 679.0 pg/mL | Recovery versus 1st run (endogenous proteases [1]; HP, spiked synthetic BNP, leupeptin 5 μg/ml, 48 hours at 4° C.): 115.5% | BNP, 3 hours at 4° C. before freezing (endogenous proteases [1]; [7]): 795.6 pg/mL | BNP, 24 hours at 4° C. before freezing (endogenous proteases [1]; [7]): 763.0 pg/mL | BNP, 48 hours at 4° C. before freezing (endogenous proteases [1]; [7]): 798.3 pg/mL | BNP, frozen w/o storage at 4° C. (endogenous proteases [1]; [7]): 867.2 pg/mL | Recovery versus 1st run (endogenous proteases [1]; HP, spiked synthetic BNP, leupeptin 50 μg/ml, 48 hours at 4° C.): 92.1% | Amount of BNP Present After 24 hr/4° C. (endogenous proteases [1]; [8]): 2503.78 | Amount of BNP Present After 90 hr/4° C. (endogenous proteases [1]; [8]): 2133.75 | Amount of BNP Present Before Storage, Day 0 (endogenous proteases [1]; [8]): 2290.08 | BNP Amount % Change (endogenous proteases [1]; IHP with synthetic BNP-32 added, each inhibitor 50 μg/ml, 90 hr/4° C. vs Day 0): −6.8% | BNP, 1st run (Time 0) (endogenous proteases [1]; [9]): 847.4 pg/mL | BNP, 3 hours at 4° C. (endogenous proteases [1]; [9]): 863.3 pg/mL | BNP, 17 hours at 4° C. (endogenous proteases [1]; [9]): 776.1 pg/mL | BNP, 40 hours at 4° C. (endogenous proteases [1]; [9]): 721.6 pg/mL | BNP, 6 days at 4° C. (endogenous proteases [1]; [9]): 373.6 pg/mL | Recovery versus 1st run (endogenous proteases [1]; Plasma A, spiked synthetic BNP, inhibitor 0.62 μg/ml, 6 days at 4° C.): 44.1% | BNP, 1st run (Time 0) (endogenous proteases [1]; [10]): 841.7 pg/mL | BNP, 3 hours at 4° C. (endogenous proteases [1]; [10]): 873.5 pg/mL | BNP, 17 hours at 4° C. (endogenous proteases [1]; [10]): 859.4 pg/mL | BNP, 40 hours at 4° C. (endogenous proteases [1]; [10]): 795.5 pg/mL | BNP, 6 days at 4° C. (endogenous proteases [1]; [10]): 604.7 pg/mL | Recovery versus 1st run (endogenous proteases [1]; Plasma A, spiked synthetic BNP, inhibitor 1.85 μg/ml, 6 days at 4° C.): 71.8% | BNP, 1st run (Time 0) (endogenous proteases [1]; [11]): 879.3 pg/mL | BNP, 3 hours at 4° C. (endogenous proteases [1]; [11]): 900.4 pg/mL | BNP, 17 hours at 4° C. (endogenous proteases [1]; [11]): 847.2 pg/mL | BNP, 40 hours at 4° C. (endogenous proteases [1]; [11]): 808.0 pg/mL | BNP, 6 days at 4° C. (endogenous proteases [1]; [11]): 722.8 pg/mL | Recovery versus 1st run (endogenous proteases [1]; Plasma A, spiked synthetic BNP, inhibitor 5.56 μg/ml, 6 days at 4° C.): 82.2% | BNP, 1st run (Time 0) (endogenous proteases [1]; [12]): 886.7 pg/mL | BNP, 3 hours at 4° C. (endogenous proteases [1]; [12]): 849.8 pg/mL | BNP, 17 hours at 4° C. (endogenous proteases [1]; [12]): 904.5 pg/mL | BNP, 40 hours at 4° C. (endogenous proteases [1]; [12]): 903.1 pg/mL | BNP, 6 days at 4° C. (endogenous proteases [1]; [12]): 808.2 pg/mL | Recovery versus 1st run (endogenous proteases [1]; Plasma A, spiked synthetic BNP, inhibitor 16.7 μg/ml, 6 days at 4° C.): 91.1% | BNP, 1st run (Time 0) (endogenous proteases [1]; [13]): 792.0 pg/mL | BNP, 3 hours at 4° C. (endogenous proteases [1]; [13]): 896.9 pg/mL | BNP, 17 hours at 4° C. (endogenous proteases [1]; [13]): 864.4 pg/mL | BNP, 40 hours at 4° C. (endogenous proteases [1]; [13]): 873.7 pg/mL | BNP, 6 days at 4° C. (endogenous proteases [1]; [13]): 835.9 pg/mL | Recovery versus 1st run (endogenous proteases [1]; Plasma A, spiked synthetic BNP, inhibitor 50 μg/ml, 6 days at 4° C.): 105.5% | BNP, 3 hours at 4° C. before freezing (endogenous proteases [2]; leupeptin 0.5 μg/ml): 639.6 pg/mL | BNP, 24 hours at 4° C. before freezing (endogenous proteases [2]; leupeptin 0.5 μg/ml): 537.2 pg/mL | BNP, 48 hours at 4° C. before freezing (endogenous proteases [2]; leupeptin 0.5 μg/ml): 424.9 pg/mL | BNP, frozen w/o storage at 4° C. (endogenous proteases [2]; leupeptin 0.5 μg/ml): 712.9 pg/mL | Recovery versus 1st run (endogenous proteases [2]; leupeptin 0.5 μg/ml): 59.6% | BNP, 3 hours at 4° C. before freezing (endogenous proteases [2]; leupeptin 5 μg/ml): 672.2 pg/mL | BNP, 24 hours at 4° C. before freezing (endogenous proteases [2]; leupeptin 5 μg/ml): 601.7 pg/mL | BNP, 48 hours at 4° C. before freezing (endogenous proteases [2]; leupeptin 5 μg/ml): 498.9 pg/mL | BNP, frozen w/o storage at 4° C. (endogenous proteases [2]; leupeptin 5 μg/ml): 845.0 pg/mL | Recovery versus 1st run (endogenous proteases [2]; leupeptin 5 μg/ml): 59.0% | BNP, 3 hours at 4° C. before freezing (endogenous proteases [2]; leupeptin 50 μg/ml): 751.1 pg/mL | BNP, 24 hours at 4° C. before freezing (endogenous proteases [2]; leupeptin 50 μg/ml): 707.0 pg/mL | BNP, 48 hours at 4° C. before freezing (endogenous proteases [2]; leupeptin 50 μg/ml): 614.5 pg/mL | BNP, frozen w/o storage at 4° C. (endogenous proteases [2]; leupeptin 50 μg/ml): 810.5 pg/mL | Recovery versus 1st run (endogenous proteases [2]; leupeptin 50 μg/ml): 75.8% | BNP, 3 hours at 4° C. before freezing (endogenous proteases [3]; leupeptin 0.5 μg/ml): 129.0 pg/mL | BNP, 24 hours at 4° C. before freezing (endogenous proteases [3]; leupeptin 0.5 μg/ml): 45.1 pg/mL | BNP, 48 hours at 4° C. before freezing (endogenous proteases [3]; leupeptin 0.5 μg/ml): 11.4 pg/mL | BNP, frozen w/o storage at 4° C. (endogenous proteases [3]; leupeptin 0.5 μg/ml): 227.7 pg/mL | Recovery versus 1st run (endogenous proteases [3]; leupeptin 0.5 μg/ml): 5.0% | BNP, 3 hours at 4° C. before freezing (endogenous proteases [3]; leupeptin 5 μg/ml): 203.0 pg/mL | BNP, 24 hours at 4° C. before freezing (endogenous proteases [3]; leupeptin 5 μg/ml): 135.6 pg/mL | BNP, 48 hours at 4° C. before freezing (endogenous proteases [3]; leupeptin 5 μg/ml): 74.3 pg/mL | BNP, frozen w/o storage at 4° C. (endogenous proteases [3]; leupeptin 5 μg/ml): 311.1 pg/mL | Recovery versus 1st run (endogenous proteases [3]; leupeptin 5 μg/ml): 23.9% | BNP, 3 hours at 4° C. before freezing (endogenous proteases [3]; leupeptin 50 μg/ml): 274.2 pg/mL | BNP, 24 hours at 4° C. before freezing (endogenous proteases [3]; leupeptin 50 μg/ml): 217.5 pg/mL | BNP, 48 hours at 4° C. before freezing (endogenous proteases [3]; leupeptin 50 μg/ml): 156.6 pg/mL | BNP, frozen w/o storage at 4° C. (endogenous proteases [3]; leupeptin 50 μg/ml): 297.9 pg/mL | Recovery versus 1st run (endogenous proteases [3]; leupeptin 50 μg/ml): 52.6%

Aprotinin
% Recovery vs 1st run (Time 0) (endogenous proteases [1]): 21.1% | BNP, 1st run (Time 0) (endogenous proteases [1]): 792.4 pg/mL | BNP, 3 hours at 4° C. (endogenous proteases [1]): 849.7 pg/mL | BNP, 17 hours at 4° C. (endogenous proteases [1]): 680.0 pg/mL | BNP, 40 hours at 4° C. (endogenous proteases [1]): 490.9 pg/mL | BNP, 6 days at 4° C. (endogenous proteases [1]): 167.4 pg/mL | efficacy in stabilizing BNP (in words) (endogenous proteases [1]): low efficacy
